Source: patent US11203600B2 (Denali Therapeutics Inc., priority 2017, dated 2021)

molecular target: GST-hRIPK1 (8-327) (Homo sapiens (Human), UniProt Q13546); assay: Fluorescent Polarization Binding (FP Binding) assay, RIPK1; settings: GST-hRIPK1 (8-327), mean of at least two independent experiments
How it was run: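 Compound displacement of 5 nM labelled ligand from 10 nM GST-hRIPK1 (8-327) was read as FP (531/595 nm) after 30 min at RT. Buffer: HEPES pH 7.5, NaCl, MgCl2, CHAPS, DTT, Pluronic; 1% DMSO final. IC50s were averaged over at least two independent runs.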

GST-hRIPK1 (8-327), sequence (Q13546 8-327): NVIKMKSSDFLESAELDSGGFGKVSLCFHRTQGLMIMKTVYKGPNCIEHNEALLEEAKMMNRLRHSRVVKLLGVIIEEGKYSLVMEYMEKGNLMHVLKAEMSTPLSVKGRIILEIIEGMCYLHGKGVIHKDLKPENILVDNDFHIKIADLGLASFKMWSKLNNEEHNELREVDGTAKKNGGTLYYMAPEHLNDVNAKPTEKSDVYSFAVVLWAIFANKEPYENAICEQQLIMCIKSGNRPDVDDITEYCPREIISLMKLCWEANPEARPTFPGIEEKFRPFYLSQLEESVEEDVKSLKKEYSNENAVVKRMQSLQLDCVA

Q: For `CC(F)(F)C(C)(C(=O)N1CCOc2c(C#N)cncc2C1)C(F)F` (stereo not shown) [Example 269, 4-[2-(difluoromethyl)-3,3-difluoro-2-methyl-butanoyl]-3,5-dihydro-2H-pyrido[3,4-f][1,4]oxazepine-9-carbonitrile], which IC50 is on record?
A: Its IC50 is 100 to 1000 nM.

Q: With `C=CC(C)(C)C(=O)N1CCOc2c(C#N)cncc2C1` [Example 271, 4-(2,2-dimethylbut-3-enoyl)-3,5-dihydro-2H-pyrido[3,4-f][1,4]oxazepine-9-carbonitrile] as the compound, how does the IC50 read?
A: The IC50 was 0.1 to 100 nM.

Q: With `CC(C)(C(=O)N1CCOc2c(C#N)cncc2C1)C1CC1COC(F)(F)F` (stereo not shown) [Example 274, 4-(2-Methyl-2-(2-((trifluoromethoxy)methyl)cyclopropyl)propanoyl)-2,3,4,5-tetrahydropyrido[3,4-f][1,4]oxazepine-9-carbonitrile] as the compound, how does the IC50 read?
A: The IC50 was > 1000 nM.

Q: How did the IC50 turn out when `CC(C)(C(=O)N1CCOc2c(C#N)cncc2C1)C1CC(n2nccn2)C1` (stereo not shown) [Example 275, 4-[2-Methyl-2-[3-(triazol-2-yl)cyclobutyl]propanoyl]-3,5-dihydro-2H-pyrido[3,4-f][1,4]oxazepine-9-carbonitrile] was run?
A: Its IC50 is 100 to 1000 nM.

Q: For `CC(C)(C(=O)N1CCOc2c(C#N)cncc2C1)C1CC(n2ccnn2)C1` (stereo not shown) [Example 276, 4-[2-Methyl-2-[3-(triazol-1-yl)cyclobutyl]propanoyl]-3,5-dihydro-2H-pyrido[3,4-f][1,4]oxazepine-9-carbonitrile], which IC50 is on record?
A: Its IC50 is > 1000 nM.

Q: How did the IC50 turn out when `CC(C)(C(=O)N1CCOc2c(C#N)cncc2C1)C1CC(n2cc(F)cn2)C1` (stereo not shown) [Example 277, 4-[2-[3-(4-fluoropyrazol-1-yl)cyclobutyl]-2-methyl-propanoyl]-3,5-dihydro-2H-pyrido[3,4-f][1,4]oxazepine-9-carbonitrile] was run?
A: The IC50 was 100 to 1000 nM.

Q: Which IC50 does the source give for `CC(C)(C(=O)N1CCOc2c(C#N)cncc2C1)C1CC(Cl)C1` (stereo not shown) [Example 278, 4-[2-(3-chlorocyclobutyl)-2-methyl-propanoyl]-3,5-dihydro-2H-pyrido[3,4-f][1,4]oxazepine-9-carbonitrile] here?
A: Its IC50 is 0.1 to 100 nM.

Q: Which IC50 does the source give for `CC(C)(C(=O)N1CCOc2c(C#N)cncc2C1)C1CC(OC(F)(F)F)C1` (stereo not shown) [Example 279, 4-[2-methyl-2-[3-(trifluoromethoxy)cyclobutyl]propanoyl]-3,5-dihydro-2H-pyrido[3,4-f][1,4]oxazepine-9-carbonitrile] here?
A: Its IC50 is 0.1 to 100 nM.

Q: For `N#Cc1cncc2c1OCCN(C(=O)C1(F)CCN(c3ccc4c(n3)CNC4)CC1)C2` [Example 286, 4-[1-(6,7-dihydro-5H-pyrrolo[3,4-b]pyridin-2-yl)-4-fluoro-piperidine-4-carbonyl]-3,5-dihydro-2H-pyrido[3,4-f][1,4]oxazepine-9-carbonitrile], which IC50 is on record?
A: Its IC50 is > 1000 nM.

Q: For `COc1nc(N2CCC(C(=O)N3CCOc4c(C#N)cncc4C3)CC2)c(F)cc1F` [Example 287, 4-[1-(3,5-difluoro-6-methoxy-2-pyridyl)piperidine-4-carbonyl]-3,5-dihydro-2H-pyrido[3,4-f][1,4]oxazepine-9-carbonitrile], which IC50 is on record?
A: The IC50 was 0.1 to 100 nM.

Q: With `N#Cc1cncc2c1OCCN(C(=O)C1CCN(c3nc(F)c(F)cc3F)CC1)C2` [Example 288, 4-[1-(3,5,6-trifluoro-2-pyridyl)piperidine-4-carbonyl]-3,5-dihydro-2H-pyrido[3,4-f][1,4]oxazepine-9-carbonitrile] as the compound, how does the IC50 read?
A: Its IC50 is 0.1 to 100 nM.

Q: Which IC50 does the source give for `COc1nc(N2CCC(OC)(C(=O)N3CCOc4c(C#N)cncc4C3)CC2)c(F)cc1F` [Example 289, 4-[1-(3,5-difluoro-6-methoxy-2-pyridyl)-4-methoxy-piperidine-4-carbonyl]-3,5-dihydro-2H-pyrido [3,4-f][1,4]oxazepine-9-carbonitrile] here?
A: The IC50 was 0.1 to 100 nM.

Q: Which IC50 does the source give for `CC(C)(C(=O)N1CCOc2c(C#N)cncc2C1)[C@H]1C[C@H](Cn2nccn2)C1` [Example 290, trans-4-[2-methyl-2-[3-(triazol-2-ylmethyl)cyclobutyl]propanoyl]-3,5-dihydro-2H-pyrido [3,4-f][1,4]oxazepine-9-carbonitrile] here?
A: Its IC50 is 100 to 1000 nM.
